Tests used:
LlFpg [1] = target: T1, LlFpg (Lactococcus cremoris, UniProt P42371); assay: X-ray crystal structures of LlFpg/DNA treated with 2TX ([…] Å THF-DNA; […] Å Bz-cFapyG-DNA); type: binding; details: covalent disulfide to C248 (THF-DNA) or C268 (Bz-cFapyG-DNA); stacks on W179; outside active site; zinc lost
T1 construct: gene mutM; full-length recombinant from pFlag-CTC-WT-LlFpg, E. coli BH540 (fpg mutY) host, purified to homogeneity; zinc finger C245/C248/C265/C268
T1 sequence (P42371 2-273): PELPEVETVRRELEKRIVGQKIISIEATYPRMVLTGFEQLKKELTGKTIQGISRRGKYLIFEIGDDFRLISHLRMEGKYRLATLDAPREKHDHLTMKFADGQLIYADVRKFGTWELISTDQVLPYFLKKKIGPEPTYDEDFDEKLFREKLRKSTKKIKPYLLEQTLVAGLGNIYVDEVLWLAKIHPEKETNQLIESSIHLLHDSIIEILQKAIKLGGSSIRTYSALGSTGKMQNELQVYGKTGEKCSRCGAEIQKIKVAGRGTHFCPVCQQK

EcNei [2] = target: T2, EcNei (Escherichia coli, UniProt P50465); assay: Hyd-DNA glycosylase assay, […]-labelled 24-mer, Urea-PAGE; type: biochemical; details: Hyd:G double-stranded DNA, 30 min, 37°C, 8% DMSO
T2 construct: gene nei; full-length, C-terminal 6His-tag, pET22b derivative, expressed in E. coli BL21(DE3)

LlFpg [3] = target: T1, LlFpg; assay: PAR assay, 2TX-induced Zn2+ release, A500; type: binding; details: free enzyme without DNA; 5 μM enzyme, 10 mM 2TX, 100 μM PAR, 25 mM Hepes/KOH pH 7.5, 70 mM KCl, 8% DMSO, room temperature; covalent
Text: PAR assay, 2TX-induced Zn2+ release, A500 on LlFpg

hNEIL2 [4] = target: T3, hNEIL2 (Homo sapiens, UniProt Q969S2); assay: Hyd-DNA glycosylase assay, […]-labelled 24-mer, Urea-PAGE; type: biochemical; details: Hyd single-stranded DNA, 30 min, 37°C, 8% DMSO
T3 construct: gene NEIL2; 6His-hNEIL2 fusion, vector pPR363, expressed in E. coli BL21CodonsPlus; CHC2-type zinc finger
T3 sequence (Q969S2 1-332): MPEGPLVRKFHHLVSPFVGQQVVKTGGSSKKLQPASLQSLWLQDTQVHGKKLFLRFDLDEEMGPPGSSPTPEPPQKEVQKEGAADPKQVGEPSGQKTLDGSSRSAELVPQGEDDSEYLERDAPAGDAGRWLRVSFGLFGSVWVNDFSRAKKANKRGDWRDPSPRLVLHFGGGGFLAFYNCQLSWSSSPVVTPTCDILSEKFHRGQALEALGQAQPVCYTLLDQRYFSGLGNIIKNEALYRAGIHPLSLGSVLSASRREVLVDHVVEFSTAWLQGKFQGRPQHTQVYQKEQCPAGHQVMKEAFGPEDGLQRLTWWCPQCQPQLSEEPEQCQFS

LlFpg [5] = target: T1, LlFpg; assay: 8-oxoG-DNA glycosylase assay, […]-labelled 24-mer, gel; type: biochemical; details: 5 nM enzyme, 25 nM 8-oxoG-DNA, 0-250 μM 2TX, 30 min, 37°C, 8% DMSO
EcNei [6] = target: T2, EcNei; assay: PAR assay, 2TX-induced Zn2+ release, A500; type: binding; details: free enzyme without DNA; 5 μM enzyme, 10 mM 2TX, 100 μM PAR, 25 mM Hepes/KOH pH 7.5, 70 mM KCl, 8% DMSO, room temperature; covalent
Text: PAR assay, 2TX-induced Zn2+ release, A500 on EcNei

hNEIL2 [7] = target: T3, hNEIL2; assay: PAR assay, 2TX-induced Zn2+ release, A500; type: binding; details: free enzyme without DNA; 5 μM enzyme, 10 mM 2TX, 100 μM PAR, 25 mM Hepes/KOH pH 7.5, 70 mM KCl, 8% DMSO, room temperature; covalent
Text: PAR assay, 2TX-induced Zn2+ release, A500 on hNEIL2

[8] = target: T4, LlFpg WT (Lactococcus lactis) (UniProt P42371); assay: EMSA; details: apparent Kd, N at position 7 of strand 1 = tetrahydrofuran (THF) abasic site analogue, opposite C, EMSA: 0.1 nM 32P-labelled 14-mer THF-DNA, 0-16 nM LlFpg (2 nM in 2TX assays), 20 min at 4 C / on ice, with or without 8% DMSO, buffer and pH as in cited …
T4 sequence: T1 sequence (P42371 2-273)

T2 sequence (P50465 2-263): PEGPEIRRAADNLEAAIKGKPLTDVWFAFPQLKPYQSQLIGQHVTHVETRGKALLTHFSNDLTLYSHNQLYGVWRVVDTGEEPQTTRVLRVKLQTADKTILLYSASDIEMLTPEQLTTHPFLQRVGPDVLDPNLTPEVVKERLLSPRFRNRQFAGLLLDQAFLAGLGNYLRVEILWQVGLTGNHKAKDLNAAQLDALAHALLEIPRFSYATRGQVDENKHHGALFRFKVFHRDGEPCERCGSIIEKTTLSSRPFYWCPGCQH

Row | kobs (min^-1)^a / - DNA (LlFpg [3]) | kobs (min^-1)^a / - DNA (EcNei [6]) | kobs (min^-1)^a / - DNA (hNEIL2 [7]) | Compound | X-ray crystal structures of LlFpg/DNA treated with 2TX (2.4 Å THF-DNA); 2.1 Å Bz- (LlFpg [1]) | Hyd-DNA glycosylase assay, 32P-labelled 24-mer, Urea-PAGE (EcNei [2]) | Hyd-DNA glycosylase assay, 32P-labelled 24-mer, Urea-PAGE (hNEIL2 [4]) | 8-oxoG-DNA glycosylase assay, 32P-labelled 24-mer, gel (LlFpg [5]) | Kd ([8]; 8% DMSO) | Kd ([8]; without DMSO)
1 | 0.073 ± 0.001 min⁻¹ | 0.296 ± 0.001 min⁻¹ | 0.180 ± 0.002 min⁻¹ | O=c1[nH]c(=S)[nH]c2nc[nH]c12 [2TX, 2-thioxanthine] | a 2TX molecule covalently bound to C268 was easily modeled in the electron density map | The Hyd-DNA glycosylase activity of EcNei and hNEIL2 were also strongly inhibited by 2TX | The Hyd-DNA glycosylase activity of EcNei and hNEIL2 were also strongly inhibited by 2TX | excision of 8-oxoG from 24-mer DNA duplex (Supplementary Figure S2) by LlFpg was inhibited |  | 
2 |  |  |  | CTCTTTNTTTCTCG / GCGAGAAACAAAGA [14-mer THF-DNA] |  |  |  |  | 3 nM | 10 nM

Source: PMC4176347, “Zinc finger oxidation of Fpg/Nei DNA glycosylases by 2-thioxanthine: biochemical and X-ray structural characterization” (Nucleic Acids Research, 2014)
